How the values were obtained:
[1] = tested on: male KK-A^y mice; assay: Hypotriglyceridemic action; format: in vivo, mouse; conditions: 4 consecutive days, non-fasting, about 24 hours after final administration, vs control group
Method: (§1) The triglyceride level in the plasma was measured using a commercially available assay kit (triglyceride G-test WAKO, Wako Pure Chemical Industries, Ltd.). The mice were grouped (5 mice per group) into a control group and an administration group, such that the mean and the standard deviation of the triglyceride level in the plasma of each group were nearly the same. Each test compound was suspended or dissolved in 5% gum arabic solution and administered orally to the administration group for 4 consecutive days from the next day. The 5% gum arabic solution was orally administered to the control group. Blood was drawn from the tail vein under a non-fasting state about 24 hours after the final administration and the triglyceride level in the plasma was measured. The decrease in the plasma triglyceride level was calculated from the following formula.
Decrease (%) in plasma triglyceride level=[(mean plasma triglyceride level of control group−mean plasma triglyceride level of test compound administration group)/mean plasma triglyceride level of control group]×100

[2] = tested on: 3T3-L1 cells; assay: Triglyceride accumulation promoting action in 3T3-L1 cells; format: cell-based; conditions: 10^−7 M test compound with 10 ng/ml insulin, 4 days; relative to control
Method: A culture medium of 80% confluent 3T3-L1 cells was removed and the cells were dissociated with 0.25% trypsin-EDTA solution. 5% FBS-DMEM (the same amount as the removed medium) was added and the obtained cell suspension was centrifuged at 25° C., 100×g for 1 min to give cell sediment and the supernatant was removed. The cells were re-suspended in a suitable amount of 5% FBS-DMEM medium and the cells were counted. 5% FBS-DMEM medium was added to adjust the concentration to 1×10^5 cells/ml and the mixture was dispensed by 1 ml to a 24 well plate. The cells were cultured with aeration of 5% CO2 at 37° C. for 2 days. Upon confirmation of a post-confluent state, the culture supernatant was changed to a medium containing 0.5 mM-IBMX, and the cells were cultured for 2 days. Then, the medium was changed to a medium containing 10 ng/ml insulin and 10^−7 M test compound and the cells were cultured further for 4 days. After removing the culture supernatant, the cells were lysed in a 0.1% SDS solution and the triglyceride amount was measured. The triglyceride accumulation (%) due to the potentiation of insulin activity by the test compound was calculated from the following formula.
[(triglyceride amount with addition of test compound−triglyceride amount of control)/triglyceride amount of control]×100

[3] = tested on: male KK-A^y mice; assay: Hypoglycemic action (method A); format: in vivo, mouse; conditions: 4 consecutive days, non-fasting, about 24 hours after final administration, vs control group
Method: as §1, with “glucose” for “triglyceride”, “(glucose CII-test” for “(triglyceride G-test”
Decrease (%) in plasma glucose level=[(mean plasma glucose level of control group−mean plasma glucose level of test compound administration group)/mean plasma glucose level of control group]×100

[4] = tested on: male KK-A^y mice; assay: Hypoglycemic action and hypoinsulinemic action in insulin resistant diabetic mouse; format: in vivo; conditions: 10 mg/kg orally once a day for 4 days, 24 hours after final administration, non-fasting; for Plasma glucose: control 507; for Insulin: plasma, control 43
Method: Blood was drawn from the tail vein of 12-week-old male KK-A^y mice under a non-fasting state, and the glucose level in the plasma was measured using a commercially available assay kit (glucose CII-test WAKO, Wako Pure Chemical Industries, Ltd.). The mice were grouped (5 mice per group) into a control group and an administration group, such that the mean glucose level in the plasma and the average body weight of each group, as well as the standard deviation thereof were nearly the same. The test compound (10 mg/kg) was suspended in 5% aqueous gum arabic solution and orally administered once a day to the administration group for 4 days from the next day. The 5% aqueous gum arabic solution was orally administered to the control group. Blood was drawn from the tail vein under a non-fasting state 24 hours after the final administration. The concentrations of plasma glucose and plasma insulin were measured.

Compound: CCCCCC(=O)N1Cc2cc(OCCc3nc(-c4ccccc4)oc3C)ccc2C[C@H]1C(=O)O [Example 5, 2-Hexanoyl-7-[2-(5-methyl-2-phenyloxazol-4-yl)ethoxy]-1,2,3,4-tetrahydroisoquinoline-(3S)-carboxylic acid]
- Decrease (%) in plasma triglyceride level ([1]; dose 30 mg/kg orally): 30.9%
- Triglyceride accumulation (%) [2]: 233.0%
- Decrease (%) in plasma glucose level ([3]; dose 10 mg/kg orally): 34.1%
- Decrease (%) in plasma glucose level ([3]; dose 30 mg/kg orally): 43.4%

Compound: Cc1oc(-c2ccccc2)nc1CCOc1ccc2c(c1)CN(CC1CCCCC1)[C@H](C(=O)O)C2 [Example 8, 2-Cyclohexylmethyl-7-[2-(5-methyl-2-phenyloxazol-4-yl)ethoxy]-1,2,3,4-tetrahydroisoquinoline-(3S)-carboxylic acid]
- Triglyceride accumulation (%) [2]: 275.5%

Compound: COc1ccc(CN2Cc3cc(OCCc4nc(-c5ccccc5)oc4C)ccc3C[C@H]2C(=O)O)cc1 [Example 16, 2-(4-Methoxybenzyl)-7-[2-(5-methyl-2-phenyloxazol-4-yl)ethoxy]-1,2,3,4-tetrahydroisoquinoline-(3S)-carboxylic acid]
- Decrease (%) in plasma triglyceride level ([1]; dose 30 mg/kg orally): 19.8%
- Triglyceride accumulation (%) [2]: 288.9%
- Decrease (%) in plasma glucose level ([3]; dose 30 mg/kg orally): 34.5%

Compound: Cc1oc(-c2ccccc2)nc1CCOc1ccc2c(c1)CN(Cc1ccc(F)cc1)[C@H](C(=O)O)C2 [Example 21, 2-(4-Fluorobenzyl)-7-[2-(5-methyl-2-phenyloxazol-4-yl)ethoxy]-1,2,3,4-tetrahydroisoquinoline-(3S)-carboxylic acid]
- Decrease (%) in plasma triglyceride level ([1]; dose 30 mg/kg orally): 24.4%
- Triglyceride accumulation (%) [2]: 284.9%
- Decrease (%) in plasma glucose level ([3]; dose 30 mg/kg orally): 43.4%

Compound: Cc1oc(-c2ccccc2)nc1CCOc1ccc2c(c1)CN(CC(C)(C)C)[C@H](C(=O)O)C2 [Example 23, 2-(2,2-Dimethylpropyl)-7-[2-(5-methyl-2-phenyloxazol-4-yl)ethoxy]-1,2,3,4-tetrahydroisoquinoline-(3S.)-carboxylic acid]
- Plasma glucose [4]: 382 mg/dL
- Insulin [4]: 28 ng/mL
- Decrease (%) in plasma triglyceride level ([1]; dose 10 mg/kg orally): 30.4%
- Decrease (%) in plasma triglyceride level ([1]; dose 30 mg/kg orally): 50.4%
- Triglyceride accumulation (%) [2]: 214.2%
- Decrease (%) in plasma glucose level ([3]; dose 10 mg/kg orally): 24.3%
- Decrease (%) in plasma glucose level ([3]; dose 30 mg/kg orally): 42.9%

Compound: Cc1oc(C(C)(C)C)nc1CCOc1ccc2c(c1)CN(Cc1ccccc1)[C@H](C(=O)O)C2 [Example 32, 2-Benzyl-7-[2-(5-methyl-2-tert-butyloxazol-4-yl)ethoxy]-1,2,3,4-tetrahydroisoquinoline-(3S)-carboxylic acid]
- Plasma glucose [4]: 402 mg/dL
- Insulin [4]: 30 ng/mL
- Decrease (%) in plasma triglyceride level ([1]; dose 30 mg/kg orally): 32.5%
- Triglyceride accumulation (%) [2]: 181.2%
- Decrease (%) in plasma glucose level ([3]; dose 30 mg/kg orally): 36.4%

Compound: Cc1oc(-c2cccs2)nc1CCOc1ccc2c(c1)CN(Cc1ccccc1)[C@H](C(=O)O)C2 [Example 33, 2-Benzyl-7-[2-(5-methyl-2-(thiophen-2-yl)oxazol-4-yl)ethoxy]-1,2,3,4-tetrahydroisoquinoline-(3S)-carboxylic acid]
- Decrease (%) in plasma triglyceride level ([1]; dose 30 mg/kg orally): 42.0%
- Triglyceride accumulation (%) [2]: 222.5%
- Decrease (%) in plasma glucose level ([3]; dose 30 mg/kg orally): 38.8%

Compound: C=CCCc1nc(CCOc2ccc3c(c2)CN(Cc2ccccc2)[C@H](C(=O)O)C3)c(C)o1 [Example 37]
- Triglyceride accumulation (%) [2]: 277.3%
- Decrease (%) in plasma glucose level ([3]; dose 30 mg/kg orally): 11.1%

Compound: C#CCN1Cc2cc(OCCc3nc(-c4ccccc4)oc3C)ccc2C[C@H]1C(=O)O [Example 39, 7-[2-(5-Methyl-2-phenyloxazol-4-yl)ethoxy]-2-(2-propynyl)-1,2,3,4-tetrahydroisoquinoline-(3S)-carboxylic acid]
- Decrease (%) in plasma triglyceride level ([1]; dose 30 mg/kg orally): 15.6%
- Triglyceride accumulation (%) [2]: 258.0%
- Decrease (%) in plasma glucose level ([3]; dose 30 mg/kg orally): 30.7%

Compound: CC=CCN1Cc2cc(OCCc3nc(-c4ccccc4)oc3C)ccc2C[C@H]1C(=O)O [Example 40]
- Decrease (%) in plasma triglyceride level ([1]; dose 30 mg/kg orally): 36.1%
- Triglyceride accumulation (%) [2]: 231.0%
- Decrease (%) in plasma glucose level ([3]; dose 30 mg/kg orally): 46.3%

Compound: C=CCCN1Cc2cc(OCCc3nc(-c4ccccc4)oc3C)ccc2C[C@H]1C(=O)O [Example 42, 2-(3-Butenyl)-7-[2-(5-methyl-2-phenyloxazol-4-yl)ethoxy]-1,2,3,4-tetrahydroisoquinoline-(3S)-carboxylic acid]
- Plasma glucose [4]: 308 mg/dL
- Insulin [4]: 27 ng/mL
- Decrease (%) in plasma triglyceride level ([1]; dose 30 mg/kg orally): 31.6%
- Triglyceride accumulation (%) [2]: 193.6%
- Decrease (%) in plasma glucose level ([3]; dose 10 mg/kg orally): 27.6%
- Decrease (%) in plasma glucose level ([3]; dose 30 mg/kg orally): 49.6%

Compound: CC(C)(CCOc1ccc2c(c1)CN(Cc1ccccc1)[C@H](C(=O)O)C2)c1ccccc1 [Example 49, 2-Benzyl-7-(3-methyl-3-phenylbutoxy)-1,2,3,4-tetrahydroisoquinoline-(3S)-carboxylic acid]
- Decrease (%) in plasma triglyceride level ([1]; dose 30 mg/kg orally): 17.0%
- Decrease (%) in plasma glucose level ([3]; dose 30 mg/kg orally): 11.1%

Compound: CC(C)(CCOc1ccc2c(c1)CN(Cc1ccccc1)[C@H](C(=O)O)C2)Cc1ccccc1 [Example 50, 2-Benzyl-7-(3,3-dimethyl-4-phenylbutoxy)-1,2,3,4-tetrahydroisoquinoline-(3S)-carboxylic acid]
- Decrease (%) in plasma triglyceride level ([1]; dose 30 mg/kg orally): 35.7%
- Decrease (%) in plasma glucose level ([3]; dose 30 mg/kg orally): 11.4%

Compound: CC(C)c1nc2ccc(COc3ccc4c(c3)CN(Cc3ccccc3)[C@H](C(=O)O)C4)cc2o1 [Example 51, 2-Benzyl-7-(2-isopropylbenzoxazol-6-yl)methoxy-1,2,3,4-tetrahydroisoquinoline-(3S)-carboxylic acid]
- Decrease (%) in plasma triglyceride level ([1]; dose 30 mg/kg orally): 10.7%
- Decrease (%) in plasma glucose level ([3]; dose 30 mg/kg orally): 20.0%

Compound: CC(C)(C)c1nc2ccc(COc3ccc4c(c3)CN(Cc3ccccc3)[C@H](C(=O)O)C4)cc2o1 [Example 52, 2-Benzyl-7-(2-tert-butylbenzoxazol-6-yl)methoxy-1,2,3,4-tetrahydroisoquinoline-(3S)-carboxylic acid]
- Decrease (%) in plasma triglyceride level ([1]; dose 30 mg/kg orally): 26.6%
- Decrease (%) in plasma glucose level ([3]; dose 30 mg/kg orally): 26.3%

Compound: COC(=O)[C@@H]1Cc2ccc(OCCc3nc(-c4ccccc4)oc3C)cc2CN1Cc1ccccc1 [Example 58, Methyl 2-benzyl-7-[2-(5-methyl-2-phenyloxazol-4-yl)ethoxy]-1,2,3,4-tetrahydroisoquinoline-(3S)-carboxylate]
- Decrease (%) in plasma triglyceride level ([1]; dose 30 mg/kg orally): 24.7%
- Decrease (%) in plasma glucose level ([3]; dose 30 mg/kg orally): 19.1%

Compound: CCC=Cc1nc(CCOc2ccc3c(c2)CN(Cc2ccccc2)[C@H](C(=O)O)C3)c(C)o1 [Example 62, 2-Benzyl-7-{2-[2-(1-butenyl)-5-methyloxazol-4-yl]ethoxy}-1,2,3,4-tetrahydroisoguinoline-(3S)-carboxylic acid]
- Triglyceride accumulation (%) [2]: 327.8%

Compound: Cc1oc(-c2ccccc2)nc1CCOc1ccc2c(c1)CN(CC(=O)O)[C@H](C(=O)O)C2 [Example 69, 2-Carboxymethyl-7-[2-(5-methyl-2-phenyloxazol-4-yl)ethoxy]-1,2,3,4-tetrahydroisoquinoline-(3S)-carboxylic acid]
- Decrease (%) in plasma triglyceride level ([1]; dose 30 mg/kg orally): 15.2%
- Decrease (%) in plasma glucose level ([3]; dose 30 mg/kg orally): 12.5%

Compound: CC(=O)c1cccc(CN2Cc3cc(OCCc4nc(-c5ccccc5)oc4C)ccc3C[C@H]2C(=O)O)c1 [Example 73, 2-(3-Acetylbenzyl)-7-[2-(5-methyl-2-phenyloxazol-4-yl)ethoxy]-1,2,3,4-tetrahydroisoquinoline-(3S)-carboxylic acid]
- Decrease (%) in plasma triglyceride level ([1]; dose 30 mg/kg orally): 15.4%
- Decrease (%) in plasma glucose level ([3]; dose 30 mg/kg orally): 14.8%
